Source: ChEMBL document CHEMBL1201862, “PubChem BioAssay data set” (2004)
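Each compound was tested at five concentrations against cells in 96-well plates for 48 hours. GI50 marks 50% less growth.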 Calls of active or inactive are those of the source. Cut-off read from the data, not from the text of the source: active = GI50 up to about 1.1 µM and inactive = higher.

Key:
Test in all cases: NCI-60 cell line screen, 48 h
[1] = system: SF-539
[2] = system: 786-0
[3] = system: NCI-H460
[4] = system: U-251
[5] = system: SK-MEL-2
[6] = system: CCRF-CEM
[7] = system: TK-10
[8] = system: LOX IMVI
[9] = system: A549
[10] = system: ACHN
[11] = system: HCC 2998
[12] = system: KM-20L2
[13] = system: K562
[14] = system: UO-31
[15] = system: OVCAR-3
[16] = system: Hs-578T
[17] = system: MDA-MB-435
[18] = system: T47D
[19] = system: NCI/ADR-RES
[20] = system: MDA-N

| SMILES | GI50 [1] | GI50 [2] | GI50 [3] | GI50 [4] | GI50 [5] | GI50 [6] | GI50 [7] | GI50 [8] | GI50 [9] | GI50 [10] | GI50 [11] | GI50 [12] | GI50 [13] | GI50 [14] | GI50 [15] | GI50 [16] | GI50 [17] | GI50 [18] | GI50 [19] | GI50 [20] |
| --- | --- | --- | --- | --- | --- | --- | --- | --- | --- | --- | --- | --- | --- | --- | --- | --- | --- | --- | --- | --- |
| C#CC1(O)c2ccccc2C(=O)c2ccccc21 | > 100 µM (inactive) | > 100 µM (inactive) | > 100 µM (inactive) | > 100 µM (inactive) | > 100 µM (inactive) | > 100 µM (inactive) | > 100 µM (inactive) | > 100 µM (inactive) | > 100 µM (inactive) | > 100 µM (inactive) | > 100 µM (inactive) | > 100 µM (inactive) | > 100 µM (inactive) |  |  |  |  |  |  |  |
| O=Cc1ccc2c(c1-c1c(C=O)ccc3c1OCO3)OCO2 | > 100 µM (inactive) | > 100 µM (inactive) | > 100 µM (inactive) | > 100 µM (inactive) | > 100 µM (inactive) | 85.1 µM (inactive) | > 100 µM (inactive) |  | > 100 µM (inactive) | > 100 µM (inactive) | > 100 µM (inactive) | > 100 µM (inactive) | > 100 µM (inactive) | > 100 µM (inactive) | > 100 µM (inactive) |  |  |  |  |  |
| CO/N=C(\C)c1ccc(Nc2nc3ccccc3c3occc23)cc1 | 14.2 µM (inactive) | 14.2 µM (inactive) | 15.6 µM (inactive) | 16.9 µM (inactive) | 18 µM (inactive) | 16 µM (inactive) | 12.4 µM (inactive) | 15.3 µM (inactive) | 17.3 µM (inactive) | 14 µM (inactive) | 16.1 µM (inactive) |  | 20.2 µM (inactive) | 18.9 µM (inactive) | 30.2 µM (inactive) | 12.5 µM (inactive) | 16.4 µM (inactive) | 12.6 µM (inactive) | 15.6 µM (inactive) | 14.6 µM (inactive) |
| Cc1ccc(C(=O)N/N=C(\N=N\c2ccc([N+](=O)[O-])cc2)c2ccc(N(CCC#N)CCC#N)cc2C)cc1 | > 100 µM (inactive) | 73.5 µM (inactive) | 79.3 µM (inactive) | > 100 µM (inactive) | 49.5 µM (inactive) | 39.8 µM (inactive) | > 100 µM (inactive) | 60.8 µM (inactive) | 70.1 µM (inactive) | > 100 µM (inactive) | 54.1 µM (inactive) |  | 66.2 µM (inactive) | 86.7 µM (inactive) | 39.6 µM (inactive) | 50.1 µM (inactive) | 67.8 µM (inactive) | 26.6 µM (inactive) | > 100 µM (inactive) | 78.9 µM (inactive) |
| C=C(C)C(=O)CC[C@@H](C)[C@H]1[C@@H](OC2OC(CO)C(O)C(O)C2O)C[C@@]2(C)[C@@H]3C[C@H](O)C4C(C)(C)[C@@H](OC5OC(CO)C(O)C(O)C5O)CC[C@@]45C[C@@]35CC[C@]12C (stereo partly drawn) | 89.9 µM (inactive) | > 100 µM (inactive) | 45.8 µM (inactive) | > 100 µM (inactive) | > 100 µM (inactive) | 64.9 µM (inactive) | > 100 µM (inactive) | > 100 µM (inactive) | > 100 µM (inactive) | > 100 µM (inactive) | 47 µM (inactive) |  | 90.6 µM (inactive) | > 100 µM (inactive) | > 100 µM (inactive) | 91 µM (inactive) | 68.9 µM (inactive) | > 100 µM (inactive) | > 100 µM (inactive) | 24.6 µM (inactive) |
| CCN(CC)CCNc1ccc2nnn3c4ccc(OC)cc4c(=O)c1c23 | 3.04 µM (inactive) | 4.31 µM (inactive) | 3.17 µM (inactive) | 10.4 µM (inactive) | 14.2 µM (inactive) | 3.52 µM (inactive) | 9.25 µM (inactive) | 2.22 µM (inactive) | 5.56 µM (inactive) | 4.71 µM (inactive) |  | 5.27 µM (inactive) | 3.78 µM (inactive) | 10 µM (inactive) | 13.5 µM (inactive) |  |  |  |  |  |
| CC1SC2=NC3=C(c4ccccc4C3=O)C(c3ccc(Br)cc3)N2C1=O (stereo not drawn) |  | 64.4 µM (inactive) | > 100 µM (inactive) | 35.5 µM (inactive) | 48.1 µM (inactive) | 33.3 µM (inactive) | > 100 µM (inactive) |  | 57.7 µM (inactive) | > 100 µM (inactive) | 60.8 µM (inactive) | > 100 µM (inactive) | 44.6 µM (inactive) | 8.47 µM (inactive) | 37.2 µM (inactive) |  |  |  |  |  |
| Cn1c(=O)nc2n(-c3cccc(Br)c3)c3ccccc3nc-2c1=O | 5.42 µM (inactive) | 3.71 µM (inactive) | 2.96 µM (inactive) | 5.01 µM (inactive) | 5.06 µM (inactive) | 5.82 µM (inactive) | 11.3 µM (inactive) |  | 2.92 µM (inactive) | 1.36 µM (inactive) | 2.59 µM (inactive) | 2.43 µM (inactive) | 5.16 µM (inactive) | 12.9 µM (inactive) | 2.38 µM (inactive) |  |  |  |  |  |
| CC(=O)OC/C=C/Cn1nc(Br)c(=O)[nH]c1=O | > 100 µM (inactive) | > 100 µM (inactive) | > 100 µM (inactive) | > 100 µM (inactive) | > 100 µM (inactive) | > 100 µM (inactive) | > 100 µM (inactive) | > 100 µM (inactive) | > 100 µM (inactive) | > 100 µM (inactive) | > 100 µM (inactive) |  | > 100 µM (inactive) | > 100 µM (inactive) | > 100 µM (inactive) | > 100 µM (inactive) | > 100 µM (inactive) | > 100 µM (inactive) | > 100 µM (inactive) | > 100 µM (inactive) |
| CSc1nc(-c2ccccc2)c2c(n1)-c1ccccc1CC2 |  | > 100 µM (inactive) | > 100 µM (inactive) | > 100 µM (inactive) | > 100 µM (inactive) | > 100 µM (inactive) | > 100 µM (inactive) | > 100 µM (inactive) | > 100 µM (inactive) |  |  | 78.5 µM (inactive) | > 100 µM (inactive) | > 100 µM (inactive) | > 100 µM (inactive) |  |  |  |  |  |
| O=C1C2C(C(=O)N1O)N(Cc1ccccc1)C(=O)N2Cc1ccccc1 (stereo not drawn) | > 100 µM (inactive) | > 100 µM (inactive) | > 100 µM (inactive) | > 100 µM (inactive) |  | > 100 µM (inactive) | > 100 µM (inactive) | > 100 µM (inactive) | > 100 µM (inactive) | > 100 µM (inactive) | > 100 µM (inactive) | > 100 µM (inactive) | > 100 µM (inactive) | > 100 µM (inactive) | > 100 µM (inactive) |  |  |  |  |  |
| COc1ccc2c(c1)c(=O)c1c(NCCN(C)C)ccc3c(=O)n(CCN(C)C)c(=O)n2c31 | 0.0376 µM (active) | < 0.0125 µM (active) | < 0.01 µM (active) | 0.0783 µM (active) | 0.182 µM (active) | < 0.01 µM (active) | 0.141 µM (active) | 0.104 µM (active) | 0.0367 µM (active) | 0.0138 µM (active) | 0.0247 µM (active) |  | < 0.01 µM (active) | 0.163 µM (active) | 0.182 µM (active) | 0.178 µM (active) | 0.117 µM (active) | 0.372 µM (active) | 0.109 µM (active) | 0.1 µM (active) |
| NC(=O)c1ccc2c(c1)S(=O)(=O)c1ccccc1C2=O | 46.6 µM (inactive) | 64.6 µM (inactive) | > 100 µM (inactive) | 73.3 µM (inactive) | > 100 µM (inactive) | > 100 µM (inactive) | > 100 µM (inactive) | > 100 µM (inactive) | > 100 µM (inactive) | > 100 µM (inactive) | > 100 µM (inactive) |  | > 100 µM (inactive) | > 100 µM (inactive) | > 100 µM (inactive) | 58.6 µM (inactive) | > 100 µM (inactive) | > 100 µM (inactive) | > 100 µM (inactive) | > 100 µM (inactive) |
| CCCCOc1ccc(NC(=N)Nc2ccc(Cl)cc2)cc1 | 0.558 µM (active) | 11.1 µM (inactive) | 3.7 µM (inactive) | 9.68 µM (inactive) | 2.64 µM (inactive) | 0.251 µM (active) | 5.16 µM (inactive) | 3.05 µM (inactive) | 0.741 µM (active) | 0.462 µM (active) | 0.358 µM (active) |  | 3.01 µM (inactive) | 2.43 µM (inactive) | 10.2 µM (inactive) | 5.5 µM (inactive) | 11.1 µM (inactive) | 0.474 µM (active) | 2.28 µM (inactive) | 5.58 µM (inactive) |
| O=C(Sc1sc(=S)sc1SC(=O)c1ccccc1)c1ccccc1 | 46.2 µM (inactive) | > 100 µM (inactive) | > 10 µM (inactive) | 28.8 µM (inactive) | 41.4 µM (inactive) | > 100 µM (inactive) | > 100 µM (inactive) |  | 27.6 µM (inactive) | > 100 µM (inactive) | 34.2 µM (inactive) | 48.2 µM (inactive) | > 100 µM (inactive) |  | > 100 µM (inactive) |  |  |  |  |  |
| N#CCCCCCOCCOCCOCCOCCOCCCCCC#N |  | > 100 µM (inactive) | > 100 µM (inactive) | > 100 µM (inactive) | > 100 µM (inactive) | > 100 µM (inactive) | > 100 µM (inactive) | > 100 µM (inactive) | > 100 µM (inactive) | > 100 µM (inactive) | > 100 µM (inactive) | > 100 µM (inactive) | 68.5 µM (inactive) | > 100 µM (inactive) | 97.7 µM (inactive) |  |  |  |  |  |
| N#Cc1ccc(/C=[N+](/C=c2ccc(=C=[N-])cc2)N(CCO)C2=NCCN2)cc1 | > 100 µM (inactive) | > 100 µM (inactive) | > 100 µM (inactive) | > 100 µM (inactive) | > 100 µM (inactive) | > 100 µM (inactive) | > 100 µM (inactive) | > 100 µM (inactive) | > 100 µM (inactive) | > 100 µM (inactive) | > 100 µM (inactive) |  | > 100 µM (inactive) | > 100 µM (inactive) | > 100 µM (inactive) | > 100 µM (inactive) | > 100 µM (inactive) | > 100 µM (inactive) | > 100 µM (inactive) | > 100 µM (inactive) |
